Drawing on PubChem BioAssay AID1959 (Broad Institute, 2009), this text covers EC50 for 84 compounds.

Usually EC50 stands for the concentration at which the effect is half-maximal.

The source made the active and inactive calls.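 How the source made its calls: active means growth-inhibition EC50 no more than tenfold above the top tested dose; inconclusive means flat fit between 30% and 70% inhibition, or unreliable fit; inactive means EC50 more than tenfold above the top tested dose.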

The test system of this test is E. coli NEB5alpha growth, BacTiter-Glo luminescence, 4 h. The test can be described thus: Escherichia coli growth inhibition, dose response, counter-screen for MEX-5/POS-1 RNA-binding inhibitor project, luminescence, NEB5alpha (AID 1959).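 Further: pUC19-transformed ampicillin-resistant cells grown in LB with ampicillin.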 Background: Counterscreens check selectivity or assay interference.
On to `COC(=O)[C@@H]1[C@H]2C[C@H]3c4[nH]c5ccccc5c4CCN3C[C@@H]2CC[C@@H]1O`, for which the EC50 is > 11 µM (inactive).

With `O=C(O)c1cccc(-n2cccc2/C=C2/SC(=O)N(CC(=O)N3CCCC3)C2=O)c1`, the EC50 is > 11 µM (inactive).

Regarding `COc1ccc(OC)c(-n2c(O)c(/C=C3\C=Nc4ccccc43)c(=O)[nH]c2=O)c1`, the EC50 was > 11 µM (inactive).

For `Nc1nc(Sc2ccc([N+](=O)[O-])cc2[N+](=O)[O-])n[nH]1`, the EC50 is > 11 µM (inactive).

As for `Cc1ncc(CO)c(/C=N/NC(=O)c2cc(O)c(O)c(O)c2)c1O`, the EC50 was > 11 µM (inactive).

For `CCOC(=O)N1CCN(CC(=O)c2ccc(O)cc2O)CC1`, the EC50 is > 11 µM (inactive).

`CCOc1ccc(/C=c2\sc3nc(-c4ccco4)nn3c2=O)cc1OCC`: the EC50 is > 11 µM (inactive).

As for `CNC(=O)c1c(NC(=O)c2ccc(S(=O)(=O)N3CCCCC3C)cc2)sc2c1CCN(C)C2` (centres undefined), the EC50 is > 11 µM (inactive).

Regarding `O=C1NC(=O)N(c2ccccc2F)C(=O)/C1=C/c1cn(CC(=O)N2CCOCC2)c2ccccc12`, the EC50 was > 11 µM (inactive).

Regarding `CC1=C(C#N)C(=O)OC(C)(C)C1`, the EC50 was > 11 µM (inactive).

As for `CCc1c(C)nc(SCC(=O)c2cccs2)c(C#N)c1C`, the EC50 is > 11 µM (inactive).

Consider `CCCCC1=CC2=CC(=O)C(C)(OC(=O)CC)C(=O)C2=CO1` (centres undefined), for which the EC50 is > 11 µM (inactive).

Regarding `CCN(CC)c1ccc(/C=N/NC(=O)c2ccco2)c(O)c1`, the EC50 was > 11 µM (inactive).

Regarding `CCCCc1ccc(NC(=O)CSC2=NN3CCCC(=O)N=C3S2)cc1`, the EC50 was > 11 µM (inactive).

On to `COC1(OC)N=C(N)C2(C#N)C(c3ccc4c(c3)OCO4)C12C#N` (centres undefined), for which the EC50 was > 11 µM (inactive).

Regarding `CCn1c(=N)c(S(=O)(=O)c2ccc(F)cc2)cc2c(=O)n3ccccc3nc21`, the EC50 is > 11 µM (inactive).

Take `CCCCN1C(=O)/C(=C/C=C2\Oc3ccccc3N2CC)SC1=S`: the EC50 was > 11 µM (inactive).

Take `CC(C)COc1ccc(/C=C2/Sc3ccccc3C2=O)cc1`: the EC50 is > 11 µM (inactive).

`Cc1cc(NC(=O)/C(C#N)=C/c2ccc(-c3ccc(SC(F)F)cc3)o2)n(-c2ccccc2)n1`: the EC50 is > 11 µM (inactive).

Consider `CCN1C(=C(C#N)C#N)C=Cc2ccccc21`, for which the EC50 is > 11 µM (inactive).

Regarding `CC(C)CNC(=O)C1Nc2ccc(C(F)(F)F)cc2C2C=CCC12` (centres undefined), the EC50 was > 11 µM (inactive).

As to `CCOC(=O)c1c[nH]c2nc(C)ccc2c1=O`, the EC50 was > 11 µM (inactive).

Turning to `CCOc1cc(C(c2c(C)[nH][nH]c2=O)c2c(C)[nH][nH]c2=O)ccc1O`, the EC50 was > 11 µM (inactive).

In the case of `CN(C)c1cccc2c1c(NS(=O)(=O)c1cn(C)cn1)nn2C`, the EC50 was > 11 µM (inactive).

For `Oc1ccc(CCNc2c3ccccc3nc3ccccc23)cc1O`, the EC50 is > 11 µM (inactive).

Turning to `Cc1c(C(=O)O)cccc1-n1c(C)cc(/C=C2\C(=O)NC(=O)N(c3ccc4c(c3)OCO4)C2=O)c1C`, the EC50 was > 11 µM (inactive).

Take `CCC(=O)OC1(C)C(=O)C=C2C=C(CCCC(=O)OC)OC=C2C1=O` (centres undefined): the EC50 is > 11 µM (inactive).

As to `Cc1ccc2[nH]c(=O)c(CN(CCO)Cc3nnnn3CCc3ccccc3)cc2c1`, the EC50 is > 11 µM (inactive).

On to `Cc1ccc2[nH]c3c(c2c1)CN(C(=O)CN1CCN(C(=O)c2ccco2)CC1)CC3`, for which the EC50 was > 11 µM (inactive).

As for `COc1ccc(C(=O)NNC(=O)c2cnccn2)cc1[N+](=O)[O-]`, the EC50 was > 11 µM (inactive).

Take `CNc1c(N)n(Cc2ccccc2)c(=O)[nH]c1=O`: the EC50 was > 11 µM (inactive).

On to `CN(C)[C@@H]1C(=O)C(C(N)=O)=C(O)[C@@]2(O)C(=O)C3=C(O)c4c(O)cccc4[C@@](C)(O)C3[C@H](O)C12` (some centres undefined), for which the EC50 is 7.38 µM.

On to `O=c1[nH]c(=O)n(CCc2ccc(F)cc2)c(O)c1C=NCCCn1ccnc1`, for which the EC50 was > 11 µM (inactive).

For `Cc1cc(C(=O)O)ccc1-n1c(C)cc(/C=C(/C#N)C(=O)Nc2ccccc2)c1C`, the EC50 was > 11 µM (inactive).

Take `FC(F)(F)c1ccc2c(c1)C1C=CCC1C(c1ccncc1)N2` (centres undefined): the EC50 was > 11 µM (inactive).

As to `Cc1[nH][nH]c(=O)c1C(c1ccc(-c2cccc(C(=O)O)c2)o1)c1c(C)[nH][nH]c1=O`, the EC50 is > 11 µM (inactive).

For the compound `COC(=O)c1ccc(-n2c(C)cc(C(=O)COC(=O)CC3Sc4ccccc4NC3=O)c2C)cc1` (centres undefined), the EC50 is > 11 µM (inactive).

Consider `CC1=C[C@@H]2c3cccc4[nH]cc(c34)C[C@H]2N(C)C1`, for which the EC50 is > 11 µM (inactive).

In the case of `COc1cc(C2C(C#N)=C(N)Oc3n[nH]c(-c4cccnc4)c32)cc(Br)c1O` (centres undefined), the EC50 was > 11 µM (inactive).

`N#Cc1c(N)n(-c2ccc(C(=O)O)cc2)c2nc3ccccc3nc12`: the EC50 was > 11 µM (inactive).

For the compound `Nc1cccc2c1C(=O)N(c1ccccc1)C2=O`, the EC50 is > 11 µM (inactive).

For the compound `COc1ccc(-n2cc(CNCc3cnc4ccccn34)c(-c3cccc(F)c3)n2)cc1`, the EC50 was > 11 µM (inactive).

Take `Cc1ccc(S(=O)(=O)Nc2ccccc2F)cc1C(=O)NNC(=O)c1ccccc1O`: the EC50 is > 11 µM (inactive).

`COc1cc(C(=O)NC(c2ccccc2)c2ccccc2)cc(OC)c1C`: the EC50 is > 11 µM (inactive).

Consider `O=C(O)CCC(=O)NNc1nc(-c2ccccc2)c2cc(Cl)ccc2n1`, for which the EC50 was > 11 µM (inactive).

As for `CCn1c2ccccc2c(=O)c2ccccc21`, the EC50 is > 11 µM (inactive).

For the compound `COC(=O)/C(C#N)=C/c1c(Oc2cc(C)cc(C)c2)nc2c(C)cccn2c1=O`, the EC50 is > 11 µM (inactive).

With `CCCCC1=CC2=CC(=O)C(C)(OC(=O)CCC(=O)OC)C(=O)C2=CO1` (centres undefined), the EC50 is > 11 µM (inactive).

`CCn1c(C)nc2cc(N)ccc21`: the EC50 is > 11 µM (inactive).

As for `Cc1nn(C)c(C)c1CN(C)C(=O)C1c2ccccc2Oc2ccccc21`, the EC50 is > 11 µM (inactive).

For the compound `CN(C)c1ccc(/C=N/NC2=NS(=O)(=O)c3ccccc32)cc1`, the EC50 is > 11 µM (inactive).

In the case of `CC1CCc2nn(CC(=O)NCCN3CCCCC3C)cc2C1` (centres undefined), the EC50 is > 11 µM (inactive).

In the case of `O=c1[nH]c2ccccc2nc1/C=C/c1ccc(F)cc1`, the EC50 is > 11 µM (inactive).

As for `Cc1cc(/C=C2\SC(=S)N(Cc3ccco3)C2=O)c(C)n1-c1cccnc1`, the EC50 is > 11 µM (inactive).

For `COc1cc2c(cc1OC)-c1c(OC)c(OC)cc3ccnc(c13)C2=O`, the EC50 is > 11 µM (inactive).

For `Cc1onc(-c2c(F)cccc2Cl)c1C(=O)N1CCCc2ccccc21`, the EC50 is > 11 µM (inactive).

As for `Cc1ccc(-c2ccccc2)n1-c1cccc(C(=O)O)c1`, the EC50 is > 11 µM (inactive).

`CCCCN1C(=O)/C(=C2/Sc3ccccc3N2C)S/C1=N\c1ncn[nH]1`: the EC50 was > 11 µM (inactive).

With `CC1=C(C#N)C(=O)NC(=O)/C1=C\c1ccc(-c2ccc(C)cc2[N+](=O)[O-])o1`, the EC50 is > 11 µM (inactive).

Consider `NS(=O)(=O)c1ccc(NC(=S)NNC(=O)CCC(=O)Nc2ccccc2Cl)cc1`, for which the EC50 was > 11 µM (inactive).

Turning to `CCN(CC)CCN=Cc1c(O)n(CCc2ccccc2)c(=O)[nH]c1=O`, the EC50 was > 11 µM (inactive).

As for `O=c1oc2ccccc2cc1-c1nc(-c2cccs2)cs1`, the EC50 was > 11 µM (inactive).

Consider `CCC(C)n1c(O)c(/C=N/Nc2nc3c(c(=O)n(C)c(=O)n3C)n2C)c(=O)[nH]c1=S` (centres undefined), for which the EC50 was > 11 µM (inactive).

`Cn1c(O)c(C=Nc2ccc(N3CCOCC3)cc2)c(=O)n(C)c1=S`: the EC50 was > 11 µM (inactive).

On to `COC(=O)C1CSc2[nH]c(=O)sc2C1c1ccc(OC)c(OC)c1` (centres undefined), for which the EC50 is > 11 µM (inactive).

Regarding `CC(=O)N=c1c(C#N)cc2c(=O)n3cccc(C)c3nc2n1CCCOC(C)C`, the EC50 was > 11 µM (inactive).

Take `CC1(C)CC(=O)C2=C(C1)OC(N)=C(C#N)C2c1ccc(OC(=O)N2CCOCC2)cc1` (centres undefined): the EC50 is > 11 µM (inactive).

As to `O=C(O)CCNc1ccc(NCCC(=O)O)c2c1C(=O)c1ccccc1C2=O`, the EC50 was > 11 µM (inactive).

As to `Cc1ccc(/C=C2/C(=O)c3ccc(C(=O)O)cc3C2=O)o1`, the EC50 was > 11 µM (inactive).

For `O=C1C=C(O)c2c(O)cc(O)c(O)c2C1=O`, the EC50 was > 11 µM (inactive).

Regarding `Oc1ccc(/C=N/Nc2ncnc3nc[nH]c23)cc1`, the EC50 was > 11 µM (inactive).

As for `NC(=O)c1c(NC(=O)c2ccccc2)sc2c1CCN(Cc1ccccc1)C2`, the EC50 is > 11 µM (inactive).

As for `CN1CC=C2C(C#N)=C(N)C(C#N)(C#N)C(c3cccc(Cl)c3Cl)C2C1` (centres undefined), the EC50 is > 11 µM (inactive).

As to `C=CCOc1ccc(C2OC34CCCCC3C(C#N)(C#N)C2(C#N)C(=N)O4)cc1` (centres undefined), the EC50 was > 11 µM (inactive).

As to `O=C(O)c1ccc2c(c1)C(=O)/C(=C\c1ccco1)C2=O`, the EC50 is > 11 µM (inactive).

`ON=C1/C(=N\O)CC2(C/C1=N/O)OCCO2`: the EC50 is > 11 µM (inactive).

Turning to `Cc1cc(N2C(=O)C(O)=C(C(=O)c3cc4ccccc4o3)C2c2ccc([N+](=O)[O-])cc2)no1` (centres undefined), the EC50 was > 11 µM (inactive).

Consider `COc1ccc(OC)c(N2C(=O)/C(=C/c3ccco3)C(=O)NC2=S)c1`, for which the EC50 is > 11 µM (inactive).

Regarding `CCOC1(OCC)N=C(N)C2(C#N)C(c3ccc(NC(C)=O)cc3)C12C#N` (centres undefined), the EC50 is > 11 µM (inactive).

For the compound `Nc1ccc(Nc2ccccc2)c(S(=O)(=O)O)c1`, the EC50 was > 11 µM (inactive).

Consider `CCOC(=O)C1CCN(C(=O)CCC(=O)NNc2nc3ccccc3c3nc(C)nn23)CC1`, for which the EC50 was > 11 µM (inactive).

`O=C(N/N=C/c1ccc(-c2ccc([N+](=O)[O-])cc2)o1)c1cccnc1`: the EC50 was > 11 µM (inactive).

`CC(=O)c1ccc(NC(=O)CSc2nnc(-c3ccncc3)o2)cc1`: the EC50 was > 11 µM (inactive).

With `CCOc1ccc(-n2c(O)c(C=Nc3ccc(N(CC)CC)cc3)c(=O)[nH]c2=O)cc1`, the EC50 was > 11 µM (inactive).
